Assay results published in ChEMBL document CHEMBL5149996, “Structure-Based Optimization and Discovery of M3258, a Specific Inhibitor of the Immunoproteasome Subunit LMP7 (β5i)” (J Med Chem, 2021).
The source made the active and inactive calls. No cut-off for these calls is given here.

Tests used:
[1] = test system: U-266; assay: Antitumor activity against human U266B1 cells xenografted in H2d Rag2 mouse assessed as reduction in tumor volume at 1 mg/kg, po administered once daily and measured for 21 days; assay type: functional, organism-based; settings: time 21.0 day
[2] = Cytotoxicity against human HepG2 cells assessed as depletion of ATP content incubated for 48 to 72 hrs by CellTiter-Glo luminescent assay; assay type: toxicity, cell-based
[3] = Toxicity in H2d Rag2 mouse xenografted with human U266B1 cells assessed as change in body weight at 0.3 to 1 mg/kg, po administered once daily and measured for 21 days; assay type: organism-based, U-266; settings: in vivo, 504 h, dose 0.3-1 mg/kg, time 21 day
[4] = biological target: T1, Proteasome subunit beta type-8 (Homo sapiens, UniProt P28062); assay: Inhibition of 20S immunoproteasome beta-5i subunit in human PBMC using Ac-ANW-luciferin substrate preincubated for 2 hrs followed by substrate addition and measured after 30 mins by luminometric analysis; assay type: cell-based
T1 sequence (P28062 whole entry): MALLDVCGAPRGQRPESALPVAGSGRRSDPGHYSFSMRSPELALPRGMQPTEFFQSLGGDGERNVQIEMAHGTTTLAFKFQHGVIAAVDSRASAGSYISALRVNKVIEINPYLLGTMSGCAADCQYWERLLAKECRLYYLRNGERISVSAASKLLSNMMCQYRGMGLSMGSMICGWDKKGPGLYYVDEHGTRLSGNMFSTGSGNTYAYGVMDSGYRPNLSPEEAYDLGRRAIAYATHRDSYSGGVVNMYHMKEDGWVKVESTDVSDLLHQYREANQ

[5] = species on record: Homo sapiens; assay: Selectivity ratio of IC50 for inhibition of human 20S proteasome beta5 subunit to IC50 for inhibition of human 20S immunoproteasome beta-5i subunit
[6] = biological target: T2, Proteasome Macropain subunit MB1 (Homo sapiens, UniProt P28074); assay: Inhibition of 20S proteasome beta5 subunit in human A549 cells using Suc-LLVY-luciferin substrate preincubated for 2 hrs followed by substrate addition and measured after 30 mins by luminometric analysis; assay type: cell-based
T2 sequence (P28074 whole entry): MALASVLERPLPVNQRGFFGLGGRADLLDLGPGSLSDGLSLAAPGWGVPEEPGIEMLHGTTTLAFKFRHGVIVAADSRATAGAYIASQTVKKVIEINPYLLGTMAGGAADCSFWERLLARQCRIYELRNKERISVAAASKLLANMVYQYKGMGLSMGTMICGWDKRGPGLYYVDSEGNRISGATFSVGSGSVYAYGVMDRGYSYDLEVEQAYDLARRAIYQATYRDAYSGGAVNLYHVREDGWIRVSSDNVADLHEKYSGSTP

[7] = test system: 20S immunoproteasome beta-5i subunit; assay: Selectivity ratio of IC50 for cytotoxicity against human HepG2 cells to IC50 for inhibition of 20S immunoproteasome beta-5i subunit in human PBMC; assay type: toxicity, cell-based; settings: read-out: Ratio IC50
[8] = test system: U-266; assay: In vivo inhibition of LMP7 activity in tumor lysates of H2d Rag2 mouse xenografted with human U266B1 cells at 0.3 mg/kg, po administered once daily using (Ac-ANW)2R110 as substrate measured at 1 to 6 hrs post-last drug dosage by fluorescence intensity assay; assay type: functional, organism-based; settings: Neoplasm, time 1-6 hrs
[9] = biological target: T3, Proteasome subunit beta type-7 (Homo sapiens, UniProt Q99436); assay: Inhibition of human 20S proteasome beta2 subunit using Ac-RLR-AMC as substrate preincubated for 2 hrs followed by substrate addition and measured after 1 hr by fluorescence intensity assay
T3 sequence (Q99436 whole entry): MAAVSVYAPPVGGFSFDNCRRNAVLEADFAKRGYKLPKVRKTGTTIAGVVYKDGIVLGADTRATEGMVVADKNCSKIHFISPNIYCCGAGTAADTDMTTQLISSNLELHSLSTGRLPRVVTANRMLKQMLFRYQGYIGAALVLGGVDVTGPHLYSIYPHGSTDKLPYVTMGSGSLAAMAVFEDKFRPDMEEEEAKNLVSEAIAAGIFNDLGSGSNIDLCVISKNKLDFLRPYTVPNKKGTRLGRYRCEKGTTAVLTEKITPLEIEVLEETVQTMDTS

[10] = Intrinsic clearance in human liver microsomes measured per mg protein; assay type: ADME, Microsome
[11] = Clearance in mouse hepatocytes measured per million of cells; assay type: ADME, cell-based, Hepatocyte; settings: read-out: CLH
[12] = Oral bioavailability in mouse at 10 mg/kg; assay type: ADME, organism-based; settings: in vivo
[13] = test system: U-266; assay: In vivo inhibition of LMP7 activity in tumor lysates of H2d Rag2 mouse xenografted with human U266B1 cells at 1 mg/kg, po administered as single dose using (Ac-ANW)2R110 as substrate measured up to 14 hrs by fluorescence intensity assay; assay type: functional, organism-based; settings: Neoplasm
[14] = biological target: T2, Proteasome Macropain subunit MB1; assay: Inhibition of human 20S proteasome beta5 subunit using Suc-LLVY-AMC as substrate preincubated for 2 hrs followed by substrate addition and measured after 1 hr by fluorescence intensity assay
[15] = test system: 20S immunoproteasome beta-5i subunit; assay: Selectivity ratio of IC50 for cytotoxicity against human primary hepatocytes to IC50 for inhibition of 20S immunoproteasome beta-5i subunit in human PBMC; assay type: toxicity; settings: read-out: Ratio IC50
[16] = Half life in iv dosed mouse; assay type: ADME, organism-based; settings: in vivo
[17] = Kinetic solubility of the compound; assay type: physicochemical; settings: read-out: Kinetic_solubility
[18] = biological target: 5-hydroxytryptamine receptor 2A (Homo sapiens) (UniProt P28223); assay: Displacement of [125I](+/-)DOI from human recombinant 5HT2A receptor at 10 uM incubated for 60 mins by radiometric scintillation counting analysis
[19] = test system: 20S immunoproteasome beta-5i subunit; assay: Selectivity ratio of IC50 for cytotoxicity against Wistar Han rat hepatocytes to IC50 for inhibition of 20S immunoproteasome beta-5i subunit in human PBMC; assay type: toxicity; settings: read-out: Ratio IC50
[20] = Clearance in iv dosed mouse; assay type: ADME, organism-based; settings: in vivo
[21] = Clearance in human hepatocytes measured per million of cells; assay type: ADME, cell-based, Hepatocyte; settings: read-out: CLH
[22] = biological target: T1, Proteasome subunit beta type-8; assay: Inhibition of human 20S immunoproteasome beta-5i subunit using Suc-LLVY-AMC as substrate preincubated for 2 hrs followed by substrate addition and measured after 1 hr by fluorescence intensity assay
[23] = Cytotoxicity against Wistar Han rat hepatocytes assessed as depletion of ATP content incubated for 48 to 72 hrs by CellTiter-Glo luminescent assay; assay type: toxicity, cell-based, Hepatocyte
[24] = species on record: Homo sapiens; assay: Selectivity ratio of IC50 for inhibition of 20S proteasome beta5 subunit in human A549 cells to IC50 for inhibition of 20S immunoproteasome beta-5i subunit in human PBMC; assay type: cell-based
[25] = Cytotoxicity against human primary hepatocytes assessed as depletion of ATP content incubated for 48 to 72 hrs by CellTiter-Glo luminescent assay; assay type: toxicity, cell-based, Hepatocyte
[26] = test system: U-266; assay: In vivo inhibition of LMP7 activity in tumor lysates of H2d Rag2 mouse xenografted with human U266B1 cells at 0.3 mg/kg, po administered as single dose using (Ac-ANW)2R110 as substrate measured after 1 to 6 hrs by fluorescence intensity assay; assay type: functional, organism-based; settings: Neoplasm, time 1-6 hrs

Chain of 5-hydroxytryptamine receptor 2A (Homo sapiens) (P28223 whole entry): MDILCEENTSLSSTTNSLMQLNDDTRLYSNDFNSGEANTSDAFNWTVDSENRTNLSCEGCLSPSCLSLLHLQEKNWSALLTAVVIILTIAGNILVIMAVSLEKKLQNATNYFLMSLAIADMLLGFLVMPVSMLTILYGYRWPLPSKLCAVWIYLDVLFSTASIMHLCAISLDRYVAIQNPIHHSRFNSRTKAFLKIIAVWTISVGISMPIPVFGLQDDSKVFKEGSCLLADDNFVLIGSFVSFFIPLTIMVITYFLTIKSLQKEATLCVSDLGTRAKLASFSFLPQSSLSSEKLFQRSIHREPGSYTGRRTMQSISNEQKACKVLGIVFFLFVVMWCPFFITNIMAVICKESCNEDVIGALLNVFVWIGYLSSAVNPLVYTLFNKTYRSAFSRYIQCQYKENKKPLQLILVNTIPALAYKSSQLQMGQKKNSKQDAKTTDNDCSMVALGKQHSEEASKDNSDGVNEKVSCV

Structure (SMILES): O=C(N[C@@H](Cc1coc2ccccc12)B(O)O)[C@@H]1C[C@H]2CC[C@@H]1O2
- Activity [1]: Active
- IC50 [2]: 48 µM
- Activity [3]: Non-Toxic
- IC50 [4]: 0.0034 µM
- Ratio IC50 [5]: 684
- IC50 [6]: 1.03 µM
- selectivity ratio [7]: 10000
- inhibition [8]: Active
- IC50 [9]: > 30 µM
- CLH [10]: < 10 µL/min/mg
- hepatocyte CLint [11]: 15 µL/min/1e6 cells
- bioavailability [12]: 35%
- inhibition [13]: Active
- IC50 [14]: 2.5 µM
- selectivity ratio [15]: 10000
- half-life [16]: 1.71 h
- solubility kinetic [17]: > 200 µM
- inhibition [18]: Active
- selectivity ratio [19]: 10000
- clearance [20]: 3.17 mL/min/kg
- hepatocyte CLint [21]: 6.2 µL/min/1e6 cells
- IC50 [22]: 0.0036 µM
- IC50 [23]: 64 µM
- Ratio IC50 [24]: 305
- IC50 [25]: 91 µM
- inhibition [26]: Active
